Data published in PubChem BioAssay (NCI).
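Each compound was tested at five concentrations against cells in 96-well plates for 48 hours. GI50 = concentration required for 50% inhibition of growth. TGI marks complete inhibition of growth.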

How the values were obtained:
Experiment in all cases: NCI-60 cell line screen, 48 h
MCF7 breast = tested on: MCF7 breast
NCI-H23 lung = tested on: NCI-H23 lung
NCI-H460 lung = tested on: NCI-H460 lung
OVCAR-4 ovarian = tested on: OVCAR-4 ovarian
RXF 393 renal = tested on: RXF 393 renal
SF-539 CNS = tested on: SF-539 CNS
SK-MEL-5 melanoma = tested on: SK-MEL-5 melanoma
SR leukemia = tested on: SR leukemia
U251 CNS = tested on: U251 CNS
M14 melanoma = tested on: M14 melanoma

| Structure (SMILES) | GI50 (MCF7 breast) | TGI (MCF7 breast) | GI50 (NCI-H23 lung) | TGI (NCI-H23 lung) | GI50 (NCI-H460 lung) | TGI (NCI-H460 lung) | GI50 (OVCAR-4 ovarian) | TGI (OVCAR-4 ovarian) | GI50 (RXF 393 renal) | TGI (RXF 393 renal) | GI50 (SF-539 CNS) | TGI (SF-539 CNS) | GI50 (SK-MEL-5 melanoma) | TGI (SK-MEL-5 melanoma) | GI50 (SR leukemia) | TGI (SR leukemia) | GI50 (U251 CNS) | TGI (U251 CNS) | GI50 (M14 melanoma) | TGI (M14 melanoma) |
| --- | --- | --- | --- | --- | --- | --- | --- | --- | --- | --- | --- | --- | --- | --- | --- | --- | --- | --- | --- | --- |
| CC#CC(=O)N1CC[C@@H](n2c(=O)n(-c3ccc(Oc4ccccc4)cc3)c3c(N)ncnc32)C1 | 23500 nM | > 100000 nM | 36800 nM | > 100000 nM | 33000 nM | > 100000 nM | 20400 nM | > 100000 nM | 37300 nM | > 100000 nM | 25000 nM | > 100000 nM | 16900 nM | 38800 nM | 14300 nM | > 100000 nM | 35800 nM | > 100000 nM |  |  |
| Fc1cccc(-c2[nH]nc3nc(Nc4cccnc4)sc23)c1 | 708 nM | > 100000 nM | 23000 nM | > 100000 nM | 2380 nM | > 100000 nM | 16100 nM | > 100000 nM | 3100 nM | > 100000 nM | 3020 nM | > 100000 nM | 593 nM | 23900 nM | 979 nM | > 100000 nM | 1010 nM | > 100000 nM | 11300 nM | > 100000 nM |
| Clc1ccc2c(NCCNc3nc(N4CCCC4)nc4ccccc34)ccnc2c1 | 156 nM | 3860 nM | 2050 nM | 5220 nM | 220 nM | 506 nM | 1280 nM | 3580 nM | 1230 nM | 2630 nM | 1760 nM | 3250 nM | 1640 nM | 3020 nM | 365 nM | 2360 nM | 1490 nM | 3150 nM | 935 nM | 2760 nM |
| C=CCSSc1ncnc2c1ncn2C1OC(CO)C(O)C1O (stereo not drawn) | 567 nM | 11600 nM | 3940 nM | > 74200 nM | 4490 nM | > 100000 nM | 782 nM | > 100000 nM | 6930 nM | 27100 nM | 2280 nM | 21000 nM | 3430 nM | > 50700 nM | 205 nM | 3730 nM | 13500 nM | > 100000 nM | 536 nM | > 100000 nM |
| Cc1nc2sc(C(=O)Nc3cccc(Br)c3)c(N)c2cc1C(O)c1ccccc1 (stereo not drawn) | 372 nM | 17000 nM | 1130 nM | 17900 nM | 391 nM | 4740 nM | 1310 nM | 20400 nM | 483 nM | 10900 nM | 558 nM | 5400 nM | 552 nM | 1960 nM | 301 nM | > 37300 nM | 520 nM | > 70900 nM | 466 nM | 29700 nM |
| C/C(=C\c1ccn(-c2ccc(N)cc2F)n1)[C@@H]1C[C@@H]2O[C@]2(C)CCC[C@H](C)[C@H](O)[C@@H](C)C(=O)C(C)(C)[C@@H](O)CC(=O)O1 | < 11.9 nM | > 50000 nM | 33 nM | > 50000 nM | 19.7 nM | > 50000 nM | 400 nM | > 50000 nM | 28.6 nM | 404 nM | 35.2 nM | 296 nM | 19.9 nM |  | 23.6 nM | > 50000 nM | 28.5 nM | > 50000 nM |  |  |
| COc1cnc2c(c1)C(=O)c1c-2n(CCCNC(C)C)c(=O)c2cc([N+](=O)[O-])ccc12 | 11.5 nM | 1070 nM | 40.1 nM | 285 nM | 19.1 nM | 126 nM | 179 nM | 807 nM | 56.2 nM | 1380 nM | 51.9 nM | 204 nM | 46.1 nM | 177 nM |  | 226 nM | 30.3 nM | 158 nM | 34.7 nM | 135 nM |
| COC1=C(OC)[C@]2(OC)c3c(O)c(OC)c4c(c3O[C@@]23O[C@@H](c2ccccc2)CC=C3C1=O)[C@@H](O)C[C@H](c1ccccc1)O4 | 321 nM | 1670 nM |  |  | 1420 nM | 2970 nM | 1480 nM | 3380 nM | 199 nM | 406 nM | 934 nM | 2500 nM | 1320 nM | 2600 nM | 229 nM | 612 nM | 1800 nM | 3550 nM | 358 nM | 1170 nM |
| Cc1cc2nc(C(Cl)Cl)nc(-c3ccccc3)n2n1 | 4060 nM | > 100000 nM | 3060 nM | 10900 nM | 1970 nM | 5130 nM | 2190 nM | 7510 nM | 2270 nM | 5750 nM | 3940 nM | 25000 nM | 39300 nM | > 100000 nM | 2300 nM | > 100000 nM | 3130 nM | 24300 nM |  |  |
| CC(C)(C)c1cc(-c2nc3c(F)c(F)c(F)c(F)c3[nH]2)cc(C(C)(C)C)c1O | > 100000 nM | > 100000 nM |  |  | > 100000 nM | > 100000 nM | > 100000 nM | > 100000 nM | > 100000 nM | > 100000 nM | > 100000 nM | > 100000 nM | > 100000 nM | > 100000 nM | 38000 nM | > 100000 nM | > 100000 nM | > 100000 nM | > 100000 nM | > 100000 nM |
